From paper PMC8222713, “Variation of Two S3b Residues in KV4.1–4.3 Channels Underlies Their Different Modulations by Spider Toxin κ-LhTx-1” (Frontiers in Pharmacology, 2021)
Where a SMILES comes first, the peptide text is derived from it. Bridges are numbered along the chain shown (N, C = ends).

Tests used:
KV1.1 channel (hKV1.1) = test: Whole-cell patch clamp selectivity, KV1.1; type: cell-based, human; conditions: KV1.1, 10 µM, n = 5
Method: (§1) The cDNA of hKV1.1, hKV1.3, rKV1.4, hKV1.5, rKV2.1, hKV3.1–3.4, mKV4.1, rKV4.2, and rKV4.3 were subcloned in the eukaryotic expression vector pCDNA3.1 or pCMV-blank. Channel mutants were made by a site-directed mutation method. Briefly, a pair of oppositely directed primers with 15 bp overlap at their 5′ ends and the designed mutation site were used to amplify the parental channel plasmid, then the PCR mix was treated with DpnI to remove the template. 10 μL digestion mix was directly used to transform 100 μL DH5α chemical competent cells. The correct mutation made by this procedure was finally confirmed by DNA sequencing. […] 4–6 h after transfection, cells were seeded onto poly-lysine (PLL) coated coverslips, and 24–36 h later, transfected cells were ready for patch-clamp analysis. […]
(§2) Whole-cell patch clamp recording was performed in an electrophysiology platform equipped with MultiClamp 700B amplifier and Axon Digidata 1550 AD/DA convertor (Axon Instruments, Irvine, CA, United States). […] The whole cell conductance (G) at each depolarizing voltage (V) was determined using the equation: G = I/(V−Vrev), where I and Vrev represents the current amplitude and the reversal potential, respectively. In the present study, Vrev for K^+ current is determined to be −85.61 mV using the Nernst equation. […] Gating currents of KV4.1–4.3 channels were measured as previously reported ([Tilley et al., 2019]). […]

KV4.3/T277P mutant = test: Whole-cell patch clamp, KV4.3/T277P in CHO-K1 cells; type: cell-based, rat
Method: (§3) The cDNA of hKV1.1, hKV1.3, rKV1.4, hKV1.5, rKV2.1, hKV3.1–3.4, mKV4.1, rKV4.2, and rKV4.3 were subcloned in the eukaryotic expression vector pCDNA3.1 or pCMV-blank. Channel mutants were made by a site-directed mutation method. Briefly, a pair of oppositely directed primers with 15 bp overlap at their 5′ ends and the designed mutation site were used to amplify the parental channel plasmid, then the PCR mix was treated with DpnI to remove the template. 10 μL digestion mix was directly used to transform 100 μL DH5α chemical competent cells. The correct mutation made by this procedure was finally confirmed by DNA sequencing. CHO-K1 cells (ATCC® CCL-61™) were grown in DMEM-F12 mixed medium (1:1) supplemented with 10% FBS and maintained in standard conditions (saturated humidity, 37°C, 5% CO2). Channel plasmid was co-transfected with pEGFP-N1 (encodes the green fluoresence protein) into CHO-K1 cells using lipofectamine 2000 following the manufacturer’s instructions. 4–6 h after transfection, cells were seeded onto poly-lysine (PLL) coated coverslips, and 24–36 h later, transfected cells were ready for patch-clamp analysis. It should be note that KV4.2 and its mutants were also co-expressed with hKChIP1 to promote their functional expressions.
(§4) Whole-cell patch clamp recording was performed in an electrophysiology platform equipped with MultiClamp 700B amplifier and Axon Digidata 1550 AD/DA convertor (Axon Instruments, Irvine, CA, United States). Data were acquired using the pClamp software (Axon Instruments, Irvine, CA, United States). All experiments were performed at room temperature. The bath solution contains (in mM): 140 NaCl, 5 KCl, 1 MgCl2, 2 CaCl2, 10 glucose, and 10 HEPES (pH = 7.3). The pipette solution contains (in mM): 140 KCl, 2.5 MgCl2, 11 EGTA, and 10 HEPES (pH = 7.3). Series resistance was kept below 10 MΩ and compensated to 80%. The concentration–response curves were fitted by a Hill logistic equation to estimate the potency (IC50) of the toxin. The whole cell conductance (G) at each depolarizing voltage (V) was determined using the equation: G = I/(V−Vrev), where I and Vrev represents the current amplitude and the reversal potential, respectively. In the present study, Vrev for K^+ current is determined to be −85.61 mV using the Nernst equation. G-V curve was obtained by plotting the normalized G as a function of V and fitted by the Boltzmann equation: y = 1/{1 + exp [(Va−V)/K]}, in which Va, V, and K represents half-maximum activation voltage, test voltage and slope factor, respectively. The steady-state fast inactivation of KV4 channels was measured using a classical two-pulses protocol: cell was held at −120 mV, and a train of conditional voltages (−120–40 mV, in 10 mV increment, 1,000 ms) were applied to induce channel inactivation, followed by a +60 mV test pulse (300 ms) to assess the proportion of non-inactivated channels; the sweep interval was set to 10 s. Currents at the test pulse (I) were normalized to the maximum value (Imax) and plotted as a function of the conditional voltage (V), the curve was fitted by the Boltzmann equation: I/Imax = A + (1−A)/{1 + exp [(V−Vh)/K]}, where Vh is the half-maximum inactivation voltage, A represents the minimum channel availability, and K is the slope factor. Gating currents of KV4.1–4.3 channels were measured as previously reported ([Tilley et al., 2019]). Briefly, the ionic pore currents were abolished by replacing K^+ with NMDG^+ in the pipette solution, and 10 µM Cs^+ was present in the bath solution to occupy the selectivity filter of KV channels to prevent decay of the gating currents during recording.
(§5) Data were presented as MEAN ± SEM, n represents the number of separate experimental cells. Data were analyzed using the software Clampfit 10.5 (Axon Instruments, Irvine, CA, United States), Graphpad Prism 5.01 (GraphPad Software, La Jolla, CA, United States) and Excel 2010 (Microsoft Corporation, Redmond, WA, United States). […]

KV1.3 channel (hKV1.3) = test: Whole-cell patch clamp selectivity, KV1.3; type: cell-based, human; conditions: KV1.3, 10 µM, n = 5
Method: as §1, §2

KV4.1/F280V mutant = test: Whole-cell patch clamp, KV4.1/F280V in CHO-K1 cells; type: cell-based, mouse; conditions: +30 mV, n = 5
Method: as §1, §2

[1] = tested on: KV4.3 channel gating currents; test: Gating current recording, KV4.3; type: cell-based, rat
Method: as §1, §2

KV3.2 channel (hKV3.2) = test: Whole-cell patch clamp selectivity, KV3.2; type: cell-based, human; conditions: KV3.2, 10 µM, n = 5
Method: as §1, §2

KV4.1/P282T mutant = test: Whole-cell patch clamp, KV4.1/P282T in CHO-K1 cells; type: cell-based, mouse
Method: as §3, §4, §5

[2] = tested on: KV4.3/275FVPK chimeric channel; test: Whole-cell patch clamp, KV4.3/275FVPK chimera in CHO-K1 cells; type: cell-based, rat; conditions: mean ± SEM
Method: as §3, §4, §5

[3] = tested on: KV4.1/280VMTN chimeric channel; test: Whole-cell patch clamp, KV4.1/280VMTN chimera in CHO-K1 cells; type: cell-based, mouse; conditions: mean ± SEM
Method: as §3, §4, §5

KV4.1/279LF/AA mutant = test: Whole-cell patch clamp, KV4.1/279LF/AA in CHO-K1 cells; type: cell-based, mouse; conditions: KV4.1/279LF/AA at Va depolarizing voltage, n = 5–7
Method: as §1, §2

KV4.3/N278K mutant = test: Whole-cell patch clamp, KV4.3/N278K in CHO-K1 cells; type: cell-based, rat
Method: as §3, §4, §5

[4] = 10 μM κ-LhTx-1, G-V, mean ± SEM, n = 6
[5] = 10 μM κ-LhTx-1, two-pulse protocol, mean ± SEM, n = 6
[6] = Va shift by 10 μM κ-LhTx-1 vs control, mean ± SEM
[7] = Vh shift by 10 μM κ-LhTx-1 vs control, mean ± SEM
[8] = 10 μM κ-LhTx-1, two-pulse protocol, n = 5
[9] = Va shift by 10 μM κ-LhTx-1 vs control
[10] = Vh shift by 10 μM κ-LhTx-1 vs control
[11] = inhibition ratio at +100 mV, 10 μM
[12] = 10 μM κ-LhTx-1, two-pulse protocol, mean ± SEM, n = 5

CC[C@H](C)[C@@H]1NC(=O)[C@H](CCC(N)=O)NC(=O)[C@@H]2CSSC[C@@H]3NC(=O)[C@H](CC(C)C)NC(=O)[C@H](CC(N)=O)NC(=O)[C@H](CCSC)NC(=O)[C@H](Cc4c[nH]c5ccccc45)NC(=O)[C@H](CO)NC(=O)[C@H](C)NC(=O)[C@@H](NC(=O)[C@H](CCC(=O)O)NC(=O)[C@H](CCC(N)=O)NC(=O)[C@H](C)NC(=O)[C@H](CC(=O)O)NC(=O)[C@@H](N)CCC(=O)O)CSSC[C@H](NC(=O)[C@H](CSSC[C@@H](C(=O)N[C@@H](CCCCN)C(=O)N[C@@H](Cc4ccc(O)cc4)C(=O)N[C@@H](CCCCN)C(=O)N[C@@H](CC(C)C)C(N)=O)NC(=O)[C@H](Cc4c[nH]c5ccccc45)NC1=O)NC(=O)[C@H](CCCCN)NC(=O)[C@H](CCCCN)NC(=O)[C@H](CCC(=O)O)NC(=O)CNC3=O)C(=O)N[C@@H](CCC(=O)O)C(=O)NCC(=O)N[C@@H](Cc1ccc(O)cc1)C(=O)N[C@@H](C(C)C)C(=O)N2 [κ-LhTx-1] (H-EDAQECASWMNLCGEKKCCEGYVCQIWCKYKL-NH2; disulfide 6-19, 13-24, 18-28 (inferred); N-terminus and C-terminus assumed) was tested, and the effect on currents (KV1.1 channel (hKV1.1)) was “did not remarkably affect the currents”, the “Va (steady-state activation)” value (KV4.3/T277P mutant; [4]) was 49.17 ± 0.88 mV and the “k, slope factor (steady-state activation)” value (KV4.3/T277P mutant; [4]) was 22.21 ± 1.64 mV. For the same compound, the “Vh (steady-state inactivation)” value (KV4.3/T277P mutant; [5]) was -35.46 ± 1.68 mV, the “k, slope factor (steady-state inactivation)” value (KV4.3/T277P mutant; [5]) was 8.50 ± 0.42 mV and the “inhi%(min) vs wild-type KV4.3” value (KV4.3/T277P mutant; 10 μM, +100 mV) was “significantly elevated inhi%(min) value”. For the same compound, the “∆Va (steady-state activation)” value (KV4.3/T277P mutant; [6]) was 40.47 ± 2.79 mV, the “∆Vh (steady-state inactivation)” value (KV4.3/T277P mutant; [7]) was 11.63 ± 2.17 mV and the effect on currents (KV1.3 channel (hKV1.3)) was “did not remarkably affect the currents”. For the same compound, the “potency vs wild-type KV4.1” value (KV4.1/F280V mutant) was “only slightly reduced κ-LhTx-1 potency”, the “inhibition of gating charge (Q) movement, 500 nM vs 10 µM” value ([1]; KV4.3, holding −100 mV, 20 ms to +30 mV, n = 5–6) was “inhibited essentially the same proportion of gating charge movement” and the gating current inhibition ([1]; KV4.3, n = 5–6) was “inhibited the gating currents”. For the same compound, the effect on currents (KV3.2 channel (hKV3.2)) was “did not remarkably affect the currents”, the “Va (steady-state activation)” value (KV4.1/P282T mutant; [4]) was 52.55 ± 1.38 mV and the “k, slope factor (steady-state activation)” value (KV4.1/P282T mutant; [4]) was 18.09 ± 0.43 mV. The “Vh (steady-state inactivation)” value (KV4.1/P282T mutant; [5]) was -29.12 ± 1.84 mV, the “k, slope factor (steady-state inactivation)” value (KV4.1/P282T mutant; [5]) was 10.73 ± 0.41 mV and the “∆Va and inhi%(min) vs wild-type KV4.1” value (KV4.1/P282T mutant; 10 μM, close to values of KV4.2/KV4.3) was “significantly reduced compared with those for KV4.1”. The “∆Va (steady-state activation)” value (KV4.1/P282T mutant; [6]) was 52.58 ± 1.86 mV, the “∆Vh (steady-state inactivation)” value (KV4.1/P282T mutant; [7]) was 26.75 ± 2.85 mV and the “Va (steady-state activation)” value ([2]; 10 μM κ-LhTx-1, G-V, n = 5) was 93.50 ± 2.00 mV. For the same compound, the “k, slope factor (steady-state activation)” value ([2]; 10 μM κ-LhTx-1, G-V, n = 5) was 17.66 ± 1.15 mV, the “Vh (steady-state inactivation)” value [2, 8] was -9.28 ± 5.57 mV and the “k, slope factor (steady-state inactivation)” value [2, 8] was 16.78 ± 3.11 mV. For the same compound, the “∆Va (steady-state activation)” value [2, 9] was 94.81 ± 2.45 mV, the “∆Vh (steady-state inactivation)” value [2, 10] was 43.34 ± 5.46 mV and the “inhi%(min)” value [2, 11] was 65.91 ± 3.36%. For the same compound, the “Va (steady-state activation)” value ([3]; 10 μM κ-LhTx-1, G-V, n = 5) was 58.61 ± 1.63 mV, the “k, slope factor (steady-state activation)” value ([3]; 10 μM κ-LhTx-1, G-V, n = 5) was 19.00 ± 0.81 mV and the “Vh (steady-state inactivation)” value [3, 8] was -44.55 ± 2.07 mV. For the same compound, the “k, slope factor (steady-state inactivation)” value [3, 8] was 9.86 ± 1.33 mV, the “∆Va (steady-state activation)” value [3, 9] was 61.44 ± 1.98 mV and the “∆Vh (steady-state inactivation)” value [3, 10] was 13.52 ± 2.24 mV. For the same compound, the “inhi%(min)” value [3, 11] was −2.82 ± 3.37%, the “effect of mutation on toxin inhibition” value (KV4.1/279LF/AA mutant) was “profoundly weakened the effect” and the “Va (steady-state activation)” value (KV4.3/N278K mutant; [4]) was 68.62 ± 1.73 mV. For the same compound, the “k, slope factor (steady-state activation)” value (KV4.3/N278K mutant; [4]) was 18.03 ± 0.87 mV, the “Vh (steady-state inactivation)” value (KV4.3/N278K mutant; [12]) was -17.01 ± 1.57 mV and the “k, slope factor (steady-state inactivation)” value (KV4.3/N278K mutant; [12]) was 10.75 ± 0.63 mV. The “voltage-dependence of inhibition vs parental KV4.3” value (KV4.3/N278K mutant; 10 μM, still greater than in KV4.1) was “much less voltage-dependence”, the “∆Va (steady-state activation)” value (KV4.3/N278K mutant; [6]) was 59.97 ± 2.64 mV and the “∆Vh (steady-state inactivation)” value (KV4.3/N278K mutant; [7]) was 30.24 ± 1.80 mV.
